Measurements from US10144758B2, “Deuterated bile acids” (Metselex, Inc., priority 2013, dated 2018).

Test system: primary rat hepatocytes
Experiment: TGF-β1-induced apoptosis, percentage of apoptotic cells
Type: cell-based
Conditions: 1 nM TGF-β1 36 hours; 100 μM compound pre-treatment; FIG. 8B
Protocol: Primary rat hepatocytes were isolated from male rats (100-150 grams) by collagenase perfusion (as described by Solá S, et al., 2003, Journal of Biological Chemistry 278: 48831-48838)). Briefly, rats were anesthetized with phenobarbital sodium (100 mg/kg body weight) injected into the peritoneal cavity. After administration of heparin (200 units/kg body weight) in the tail vein, the animal's abdomen was opened and the portal vein exposed and cannulated. The liver was then perfused at 37° C. in situ with a calcium-free Hanks' Balanced Salt Solution (HBSS) for about 10 minutes, and then with 0.05% collagenase type IV in calcium-present HBSS for another 10 minutes. […] Cell viability was determined by trypan blue exclusion and was typically 80-85%. […] Fluorescence was visualized using an Axioskop fluorescence microscope (Carl Zeiss GmbH). Blue-fluorescent nuclei were scored blindly and categorized according to the condensation and staining characteristics of chromatin. […] Five random microscopic fields per sample containing approximately 150 nuclei were counted, and mean values expressed as the percentage of apoptotic nuclei. […] Results are expressed as means±SEM of at least three experiments. *p<0.01 from control; § p<0.05 and †p<0.01 from TGF-β1.

Row | Compound | reduction of the percentage of apoptotic cells
1 | 7,8-[^2H]-3α,7α-dihydroxy-5β-cholan-24-oic acid/7-[^2H]-3α,7α-dihydroxy-5β-cholan-24-oic acid [Compound 5] | ~40%
2 | C[C@H](CCC(=O)O)[C@H]1CC[C@H]2[C@@H]3[C@@H](O)C[C@@H]4C[C@H](O)CC[C@]4(C)[C@H]3CC[C@]12C [UDCA, Ursodeoxycholic acid, reference compound] | ~40%
